The text below walks through data of US20200063210A1, “Gene Expression Signatures Associated with Patient Response to Acute Myeloid Leukemia Treatment and Use Thereof for Predicting Response to Therapy” (WAKE FOREST UNIVERSITY HEALTH SCIENCES, priority 2016, published 2020).

In one test the test system is K562 cells. In words: Oxygen consumption rate after Ara-C, K562. Type of test: cell-based. The note with it: Ara-C for 16 hours. As to the method: (§1) FIGS. 2A-2B. […] K562 cells (FIG. 2A) and OCI-AML3 (FIG. 2B) and were treated with Ara-C for 16 hours and oxygen consumption rate (OCR) was assessed. Shown is the average OCR from 3 independent experiments each done in triplicate. P value for OCI-AML3 is 0.0387 and for K562 is <0.0001.

In the next test the test system is OCI-AML3. In words: Oxygen consumption rate after Ara-C, OCI-AML3. Type of test: cell-based. The note with it: Ara-C for 16 hours. As to the method:
as §1

A further test relates to AML cell lines. Nature of the test: AML cell growth under mitochondrial inhibition. Type of test: cell-based, human and murine. The note with it: for AML cell growth: multiple human and murine cell lines, single agent.
A further test relates to AMPK. In words: AMPK phosphorylation blot of patient mononuclear cells after CPI-613 infusion. Type of test: in vivo, human. The note with it: two patients, day one after infusion. On the procedure:
(§2) FIGS. 9A-9C. AMPK Contributes to Resistance to CPI-613. (FIG. 9A) CPI-613 induces AMPK phosphorylation. Blood samples were taken on day one of treatment at the indicated time points following infusion of CPI-613. Red blood cells were lysed, and mononuclear cells were isolated. Extracts were prepared and blotted for phosphorylated AMPK. Both patients had circulating blasts at the time of sampling. Actin was used as a loading control. (FIG. 9B) Competition assay. Cas9 expressing MFL2 cells were partially infected with an sgRNA vector targeting AMPK tagged with GFP. Cells were incubated with the indicated drug for 72 hours and the % GFP+determined in the viable population. (FIG. 9C) Viability assay. Clones of Cas9 expressing MFL2 cells with sgRNAs targeting AMPK or ROSA26 were incubated with the indicated drug for 72 hours and viability determined.
(§3) Several patients had blood samples taken before and after CPI-613 infusion. […] The role of AMPK in response was assessed by competition assays using Cas-9 expressing AML cells that have deleted AMPK (FIG. 9B).

The subject of test [1] is relapsed or refractory AML. Nature of the test: Phase I study of CPI-613 in combination with high dose cytarabine and mitoxantrone. Type of test: in vivo, human. An excerpt:
FIGS. 8A-8B. Survival compared to historical cohort. CPI-HAM survival in the evaluable population compared to a historical cohort. (FIG. 8A) Kaplan-Meier curve of overall survival of elderly AML patients treated with high dose cytarabine, mitoxantrone, and CPI-613 (CPI-HAM) or a historical cohort of poor risk relapsed or refractory patients treated with high dose cytarabine, mitoxantrone, and asparaginase (HAMA). (FIG. 8B) Kaplan-Meier curve of overall survival of poor risk, relapsed or refractory AML patients treated with high dose cytarabine, mitoxantrone, and CPI-613 (CPI-HAM) or a historical cohort of poor risk relapsed or refractory patients treated with high dose cytarabine, mitoxantrone, and asparaginase (HAMA). Kaplan-Meier estimates were compared by log-rank test.
In a recently completed phase I study, CPI-613 was given in combination with high dose cytarabine and mitoxantrone to patients with relapsed or refractory AML (FIGS. 6-7). In this trial, 67 patients were enrolled and 62 were evaluable. […] The median age was 60 years (range 21-79). In patients with relapsed disease the median duration of CR1 was 11.2 months. Cytogenetics were poor risk in 27 patients, intermediate in 33, and good in 6. In the 62 evaluable patients the results were as follows. The overall response rate was 50% (26CR+5CRi) with a median survival of 6.7 months. […] When compared to historical controls treated with the same chemotherapy without CPI-613 an increase in response rate was seen. […] Additionally, the median survival of the historical patients was only 2.8 months while the median survival in the CPI-613 treated patients was 5.5 months (FIG. 8B). […] In patients >60 years old the CR/CRi rate was 47% (15/32) with a median survival of 6.9 months (FIG. 8A).

Test [2] relates to advanced myeloid malignancies. The note with it: single agent; heavily pre-treated cohort; cited from earlier work.
The next test deals with PDH. Nature of the test: PDH phosphorylation in patient blood samples before and after CPI-613 infusion. The note with it: three patients. Type of test: in vivo, human. On the procedure:
as §3

In a further test the test system is Baf3-p210 cells. Nature of the test: Survival of Balb/c mice injected with Baf3-p210 cells. Type of test: in vivo. The note with it: CPI at 250 mg/kg plus Doxorubicin at 3 mg/kg, day 3. As to the method:
FIG. 4. […] Balb/c mice were injected with Baf3-p210 cells and on day 3 treated with saline (control), Doxorubicin at 3 mg/kg or CPI at 250 mg/kg plus doxorubicin. Dox=Doxorubicin, CPI=CPI-613. P value shown is for Dox vs CPI-Dox.

Another test relates to Murine AML cells (M1p5). In words: Viability of M1p5 AML cells expressing p53 shRNA or vector control. Type of test: cell-based. The note with it: 72 hours; for response of p53 shRNA cells compared to vector controls (viability): single agent. On the procedure: FIGS. 10A-10C. CPI-613 induces chemotherapy sensitivity in p53 suppressed AML cells. (FIG. 10A) Murine AML cells (M1p5) expressing an shRNA against p53 (p53 shRNA) or vector control (GFP Control) were exposed to the indicated amount of CPI-613 (in μmoles). After 72 hours viability was determined and compared to untreated cells. (FIG. 10B) Murine AML cells (M1p5) expressing an shRNA against p53 (p53 shRNA) or vector control (GFP Control) were exposed to the indicated amount of doxorubicin (in nmoles). After 72 hours viability was determined and compared to untreated cells. (FIG. 10C) Murine AML cells (M1p5) expressing an shRNA against p53 (p53 shRNA) or vector control (GFP Control) were exposed to 50 μM CPI-613 and 2.5, 5, or 10 nM Doxorubicin for 72 hours. Following exposure viability was assessed and compared to untreated cells.
Loss of p53 is associated with poor risk cytogenetics, poor prognosis and resistance to chemotherapy but not resistance to CPI-613. In AML patients poor risk karyotypes are associated with p53 loss or mutation in 70-80% of cases (13, 29). Indeed it has been argued that much of the prognostic importance of poor risk karyotypes is mediated by p53 loss (13). This is not surprising given the association between p53 status and response to chemotherapy in AML (30). In order to assess the consequences of p53 suppression on mitochondrial inhibition we generated murine AML cells that knocked down p53 by shRNA.

The subject of test [3] is AMPK deleted MFL2 AML cells. In words: Competition assay, Cas9 expressing MFL2 cells with sgRNA targeting AMPK. Type of test: cell-based. The note with it: 72 hours with drug, % GFP+ in the viable population. On the procedure: as §2, §3
Setting [4] is: 62 evaluable patients, CPI-613 with high dose cytarabine and mitoxantrone.

Regarding `Nc1ccn([C@@H]2O[C@H](CO)[C@@H](O)[C@@H]2O)c(=O)n1` [cytarabine], the “oxygen consumption rate (OCR)” value in the test on K562 cells and in the test with OCI-AML3 was “induces mitochondrial metabolism” in each case.
On to `O=C(O)CCCCC(CCSCc1ccccc1)SCc1ccccc1` (stereo not shown) [CPI-613], for which the AML cell growth result in the test with AML cell lines was “impairs AML cell growth”. In the test on AML cell lines (the two together), the “combination effect of metformin and CPI-613” value is “synergistic in vitro and in vivo”. Also, the “phosphorylation of AMPK” value with AMPK is “robust phosphorylation of AMPK”. In test [1] (setting [4]), the median survival was found to be 6.7 months and the “overall response rate (CR+CRi)” value turned out to be 50%. Further, the “CR/CRi rate, patients >60 years old” value in test [1] (patients >60 years old (15/32)) is 47%. For the same compound, the “median survival, patients >60 years old” value in [1] (patients >60 years old (FIG. 8A)) is on record as 6.9 months. Moreover, the “median survival for all others” value in [1] (patients without response, CPI-613 with high dose cytarabine and mitoxantrone) is given as 3 months. In test [1] (poor risk CPI-613 treated patients (FIG. 8B)), the “median survival, poor risk” value came to 5.5 months. The “response rate, poor risk cytogenetics” value in test [1] (poor risk cytogenetics (9CR+2CRi/24), CPI-613 with high dose cytarabine and mitoxantrone) worked out at 46%. Moreover, in [1] (poor risk disease, compared with the same chemotherapy without CPI-613), the “response rate versus historical controls, poor risk disease” value is on record as “more than doubled”. Also, in test [1] (responders, CPI-613 with high dose cytarabine and mitoxantrone), the “median survival in responders” value is recorded as 13.2 months. For the same compound, the overall response rate in [2] is 29%. In the test with PDH, the “phosphorylation of PDH” value is listed as “increased phosphorylation of PDH”. Besides, the “combination effect with doxorubicin in vivo” value in the test on Baf3-p210 cells is recorded as “acts synergistically with doxorubicin in vivo”. Further, the “sensitivity of p53 shRNA cells to doxorubicin in presence of CPI-613” value in the test on Murine AML cells (M1p5) (50 μM CPI-613 and 2.5, 5, or 10 nM Doxorubicin) is recorded as “increased sensitivity to doxorubicin to that of the controls”. Also, in the test on Murine AML cells (M1p5), the “response of p53 shRNA cells compared to vector controls (viability)” value is listed as “no change in response”. The “competition of normal versus AMPK deleted cells” value in test [3] is on record as “Normal cells out-competed AMPK deleted cells”.
`CN(C)C(=N)N=C(N)N` [metformin]: the AML cell growth entry in the test on AML cell lines is given as “impairs AML cell growth”.
Turning to `COc1cccc2c1C(=O)c1c(O)c3c(c(O)c1C2=O)C[C@@](O)(C(=O)CO)C[C@@H]3O[C@H]1C[C@H](N)[C@H](O)[C@H](C)O1` [doxorubicin], the “response of p53 shRNA cells compared to vector controls (viability)” value in the test with Murine AML cells (M1p5) is on record as “significantly resistant”.
